Experimental data taken from patent US4431662A, “1-(1,3-Benzodioxol-5-yl)-2-pyrrolidinone and its medicinal use” (priority 1981, dated 1984).

Columns and labels:
[1] = Yeast-Induced Hyperthermia Assay, antipyretic activity; assay type: in vivo; conditions: rat; for ED50: po; for antipyretic activity (in words): yeast-induced hyperthermia assay
Source text: The Yeast-Induced Hyperthermia Assay was used according to the procedure described by Khalili-Varasteh et al. in Arch. Int. Pharmacodyn.

Rat Hot Plate Assay = assay type: in vivo; conditions: for ED50: po, 1 h, read-out: Hot Plate Assay - Rat ED50; for Hot Plate Assay - Rat ED50, inactive: at 360 mg/kg
Source text: The rat hot plate assay incorporated 2 modifications of the mouse hot plate assay originally described by Eddy et al., J. Pharmacol. Exp. Ther. 98, 121-137 (1950). The first modification was enlargement of the diameter of the cylindrical (water filled) copper plate to 25.0 cm to accommodate rats instead of mice. The second modification was the use of a temperature controller to regulate a 250 watt infrared heat lamp which was activated via a thermistor probe attached to the undersurface of the top of the copper plate. The surface temperature was thus maintained at 45±1.0° C. (N=28 measurements of the plate temperature under experimental conditions). The time in which a rat placed on the hotplate responded by lifting, shaking or licking either of its hind or forelimbs was recorded in tenths of a second. Only animals responding in pretest within 6-13 seconds were used in the studies. Drugs were suspended in 0.5% sodium carboxymethylcellulose and administered orally, by gavage, in a volume of 1.00 ml/100 g.b. wt. 60 min prior to testing. […] The reaction time of 18.3 seconds represented the sum of the mean pretest times of 40 untreated rats plus the time of 3 standard deviations of the mean. ED50 's and their standard errors were estimated from a graph of the dose-response curves using the method of Miller and Tainter (Proc. Soc. Exp. Biol. Med. 57, 261-262 (1944). Following this procedure the analgesic activity of the compound (I) was compared to that of standard analgesic drugs (Table III).
*Duration of Action in Rat Hot Plate assay represents the time in hrs to
reduce 1.5 times the hot plate ED50 to 40% inhibition.

[2] = Modified Trypsin Hyperalgesic Assay (THA) in the rat; assay type: in vivo
Protocol: The analgesic agents were administered 30 minutes after the administration of trypsin. In addition, a modification of Vinegar's published assay was carried out, comprising the administration of the analgesic agent preceding subplantar injection of trypsin (0.10 ml of 10% solution of trypsin in pyrogen-free water) by 15 minutes. In both THA's, pain scores were determined 60 minutes after trypsin injection. The result of the modification was to increase the sensitivity of the THA to the mild analgesic action of the agents.
There were usually 6 rats at each dose level and at least 3 dose levels were used.

[3] = Acetic Acid Writhing Test (AAWT) in the rat; assay type: in vivo; conditions: po, read-out: ED50 (Acetic Acid Writhing Assay in the Rat)
Source text: Using the procedure described by Koster et al. in Fed. Proc. 18, 412 (1959) and Vinegar et al. in Handbook of Experimental Pharmcology, 50-2, ch.

[4] = analgesic activity, assay not given (including inhibition by naloxone); assay type: in vivo
morphine receptor = assay: binding to the morphine receptor
[5] = Carrageenin Pleurisy Assay (CPA), acute anti-inflammatory activity; assay type: in vivo, rat
Protocol: Following the procedure described by Vinegar et al. in Proc. Soc. Exp. Biol. Med. 151, 556, (1976), the acute anti-inflammatory activity of the compound (I) was compared with that of known anti-inflammatory drugs in the rat. The average 3 hour exudate volume for each drug-treated group was determined and the % inhibition relative to solvent-fed control animals calculated, the ED50 being the dose required to reduce the 3 hour exudate volume by 50%.

[6] = rat, p.o., 60 min prior to testing, plate 45±1.0° C.
[7] = po, 1 h, rat, p.o., 6.0 kg Force, agent given 15 minutes before trypsin, pain scores 60 minutes after trypsin, read-out: ED50, 6.0 kg Force (Modified Trypsin Hyperalgesic Assay)

O=C1CCCN1c1ccc2c(c1)OCO2 [Compound I, 1-(1,3-benzodioxol-5-yl)-2-pyrrolidinone]
ED50 [1]: 67 ± 4.2 mg/kg
antipyretic activity (in words) [1]: antipyretic activity
ED50 (Rat Hot Plate Assay; [6]): 86 ± 16.5 mg/kg
Hot plate Duration of Action (time to reduce 1.5 times the hot plate ED50 to 40% inhibition) (Rat Hot Plate Assay; rat, p.o., dose 120 mg/kg): 5.0 h
duration of analgesic action (in words) (Rat Hot Plate Assay; versus codeine or morphine, assay not given): significantly greater for compound (I) than for codeine or morphine
ED50 [2, 7]: 24 ± 5.3 mg/kg
ED50 ([2]; po, 1 h, rat, p.o., 7.5 kg Force, agent given 15 minutes before trypsin, pain scores 60 minutes after trypsin, read-out: ED50, 7.5 kg Force (Modified Trypsin Hyperalgesic Assay)): 23 ± 3.5 mg/kg
analgesic activity compared with known analgesics in the trypsin assay (in words) ([2]; trypsin assay, versus acetaminophen, aspirin, zomepirac, codeine, morphine): superior to acetaminophen and the prostaglandin synthetase inhibitors such as aspirin and zomepirac as shown in the trypsin assay but less active than the opiates such as codeine or morphine
ED50 ([3]; rat, p.o.): 36 ± 7.1 mg/kg
analgesic activity (in words) ([4]; in vivo): mild to moderately strong analgesic activity
inhibition of analgesic activity by naloxone (in words) ([4]; naloxone): analgesic activity is not inhibited by naloxone
binding to the morphine receptor (in words) (morphine receptor): does not bind to the morphine receptor
ED50 ([5]; po, 3 h, rat, p.o., relative to solvent-fed control animals, read-out: ED50, dose required to reduce the 3 hour exudate volume by 50% (CPA)): 48 ± 10.5 mg/kg
acute anti-inflammatory activity (in words) ([5]; rat, carrageenan pleurisy assay): potent, long-lasting acute anti-inflammatory activity
acute anti-inflammatory action compared with acetaminophen (in words) ([5]; versus acetaminophen at comparable dose levels): more potent and to have a longer-lasting anti-inflammatory effect at comparable dose levels

COc1ccc2c3c1O[C@H]1[C@@H](O)C=C[C@H]4[C@@H](C2)N(C)CC[C@@]341 [Codeine]
ED50 (Rat Hot Plate Assay; [6]): 57 ± 35.3 mg/kg
Hot plate Duration of Action (time to reduce 1.5 times the hot plate ED50 to 40% inhibition) (Rat Hot Plate Assay; rat, p.o., dose 90 mg/kg): 3.3 h

CC(=O)Nc1ccc(O)cc1 [Acetaminophen]
ED50 [1]: 72 ± 8.6 mg/kg
antipyretic activity (in words) [1]: combats fever in the rat
Hot Plate Assay - Rat ED50, inactive (Rat Hot Plate Assay; rat, p.o.): Inactive
ED50 [2, 7]: 95 ± 17.2 mg/kg
ED50 at 200 mg/kg ([2]; po, rat, p.o., 7.5 kg Force, @ 200 mg/kg, read-out: ED50, 7.5 kg Force (Modified Trypsin Hyperalgesic Assay), inactive): > 200 mg/kg

CN1CC[C@]23c4c5ccc(O)c4O[C@H]2[C@@H](O)C=C[C@H]3[C@H]1C5 [Morphine]
ED50 (Rat Hot Plate Assay; Rattus norvegicus): 17 ± 3.6 mg/kg
Hot plate Duration of Action (time to reduce 1.5 times the hot plate ED50 to 40% inhibition) (Rat Hot Plate Assay; rat, p.o., dose 30 mg/kg): 2.5 h

CC(=O)Oc1ccccc1C(=O)O [Aspirin]
ED50 [1]: 50 ± 8.1 mg/kg
antipyretic activity (in words) [1]: combats fever in the rat
Hot Plate Assay - Rat ED50, inactive (Rat Hot Plate Assay; rat, p.o.): Inactive
ED50 ([2]; Rattus norvegicus, po, read-out: ED50, 6.0 kg Force (Modified Trypsin Hyperalgesic Assay), inactive): > 180 mg/kg
ED50 ([3]; Rattus norvegicus): 21 ± 3.4 mg/kg

COc1ccc2c3c1O[C@H]1[C@@H](O)C=C[C@H]4[C@@H](C2)N(C)CC[C@@]341 [Codeine Phosphate]
ED50 ([2]; Rattus norvegicus, po, 1 h, read-out: ED50, 6.0 kg Force (Modified Trypsin Hyperalgesic Assay)): 10 ± 1.7 mg/kg
ED50 ([2]; Rattus norvegicus, po, 1 h, read-out: ED50, 7.5 kg Force (Modified Trypsin Hyperalgesic Assay)): 8.8 ± 2.77 mg/kg
ED50 ([3]; Rattus norvegicus): 30 ± 2.7 mg/kg
